# Laboratory results from paper PMC3792051, “Polyenylpyrrole Derivatives Inhibit NLRP3 Inflammasome Activation and Inflammatory Mediator Expression by Reducing Reactive Oxygen Species Production and Mitogen-Activated Protein Kinase Activation” (PLoS ONE, 2013).
# pIC50: −log10 of the molar value.
# Columns and labels:
# [1] = test system: RAW 264.7 cells; assay: AlamarBlue assay for cell viability (cytotoxicity); settings: read-out: IC50 (cytotoxicity), RAW 264.7 macrophages, 24 h treatment, 6.25-100 µM tested
# [2] = test system: LPS-activated RAW 264.7 macrophages; assay: NO production inhibitory assay (Griess reaction); format: cell-based, murine; settings: for ED50 (inhibition of LPS-induced NO production): RAW 264.7 macrophages, LPS 1 µg/ml, 24 h, Griess reaction; for NO production by LPS-activated cells: 2.5-40 µM, 30 min before and during LPS 1 µg/ml 24 h; for NO levels produced by non-activated cells: compound alone, no LPS (data not shown)
# Protocol: RAW 264.7 cells seeded in 24-well plates at a density of 5 × 10^5 cells/ml (1 ml) were incubated for 24 h with or without LPS (1 µg/ml) in the absence or presence of the test samples, then NO production was measured indirectly by analysis of nitrite levels using the Griess reaction.
# (§1) To investigate the inhibitory effect of compounds 1h, 1i, and 1n on the LPS-induced inflammatory response, NO levels in the supernatants of RAW 264.7 macrophages incubated with DMSO (vehicle) or compound 1h, 1i, or 1n for 30 min before, and during, incubation for 24 h with LPS (1 µg/ml) were measured by the Griess reaction. […] We next investigated their effect on the expression of iNOS, the NO producing enzyme, using Western blots.
# (§2) Figure 2 Effect of polyenylpyrrole derivatives on the expression of inflammatory mediators in LPS-stimulated RAW 264.7 macrophages. In (A) and (C), the cells (5 × 10^5/ml; 1 ml) were incubated for 30 min with 2.5-40 µM compound 1h, 1i, or 1n or DMSO (vehicle), then LPS (1 µg/ml) was added and incubation continued for 24 h, then NO (A) or IL-6 or TNF-α (C) in the culture medium was assayed by the Griess reaction or ELISA, respectively. In (B), cells (5 × 10^5/ml; 1 ml) were pretreated for 30 min with 2.5-40 µM compound 1h or DMSO, then LPS (1 µg/ml) was added and incubation continued for 24 h, then expression of iNOS and COX-2 was measured by Western blotting. The fold increase is the intensity of the band of interest divided by that of the actin band normalized to the corresponding value for the 0 LPS/0 inhibitor control.
# [3] = test system: LPS-activated RAW 264.7 macrophages; assay: IL-6 and TNF-α secretion by ELISA; format: cell-based, murine; settings: for IL-6 production by LPS-activated cells / TNF-α secretion by LPS-activated cells: RAW 264.7, 2.5-40 µM, LPS 1 µg/ml 24 h; for Background levels of IL-6 and TNF-α in non-stimulated macrophages: RAW 264.7, no LPS (data not shown)
# Protocol: The effects of the test samples on IL-1β, TNF-α, and IL-6 production were measured by ELISA according to the manufacturer’s instructions. In brief, 50 µl of biotinylated antibody reagent and 50 µl of supernatant were added to a stripwell plate precoated with anti-mouse IL-1β, TNF-α, or IL-6 antibodies, which was then incubated at room temperature for 2 h. After washing the plate three times with washing buffer, 100 µl of diluted streptavidin-HRP concentrate was added to each well and the plate incubated at room temperature for 30 min. The washing process was repeated, then 100 µl of a premixed tetramethylbenzidine substrate solution was added to each well and the plate incubated at room temperature in the dark for 30 min. After addition of 100 µl of stop solution to each well, the absorbance at 450 nm of each well was measured on a microplate reader.
# as §1, §2
# [4] = test system: LPS-activated RAW 264.7 macrophages; assay: iNOS and COX-2 expression by Western blot; format: cell-based, murine; settings: 30 min pretreatment, LPS 24 h; for COX-2 expression / LPS-induced iNOS expression: 0-40 µM; for Concentration at which reduction of LPS-induced iNOS expression is significant: Western blot
# Protocol: Cells were washed twice with ice-cold phosphate-buffered saline (PBS) and lysed on ice for 5 min with lysis buffer (20 mM Tris-HCl, pH 7.5, 150 mM NaCl, 1 mM Na 2EDTA, 1 mM EGTA, 1% Triton X-100, 2.5 mM sodium pyrophosphate, 1 mM beta-glycerophosphate, 1 mM Na 3VO4, 1 µg/ml of leupeptin, 1 mM PMSF, protease inhibitor cocktail). The lysate was then centrifuged at 12,000 x g at 4 °C for 10 min and the pellet discarded. Proteins in the supernatant were separated by SDS-PAGE and electrotransferred to a PVDF membrane (EMD Millipore Corporation), which was then blocked by incubation for 1 h at room temperature in blocking buffer [(5% nonfat milk in PBS containing 0.1% Tween 20 (PBST)], then incubated for 2 h at room temperature with the primary antibody diluted in blocking buffer. After three washes in PBST, the membrane was incubated for 1 h at room temperature with an appropriate HRP-conjugated secondary antibody diluted in blocking buffer and developed using an enhanced chemiluminescence Western blot detection system (EMD Millipore Corporation).
# as §1, §2
# [5] = test system: ATP-activated LPS-primed J774A.1 macrophages; assay: Intracellular ROS production (DCF fluorescence), ATP-induced; format: cell-based, murine
# Protocol: Intracellular ROS production was measured by detecting the fluorescence intensity of the 2’, 7’-dichlorofluorescein, the oxidation product of 2’, 7’-dichlorofluorescein diacetate (Molecular Probes, Eugene, OR). […] In another, J774A.1 macrophages (5 × 10^5/ml; 0.1 ml) were incubated with LPS (1 µg/ml) for 6 h, then vehicle, compound 1h (20 µM), or DPI (25 µM) was added for 30 min. 2’, 7’-dichlorofluorescein diacetate (2 µM) was then added for 30 min before incubation with ATP (5 mM) for the indicated time; while, in another, the order of addition of compound1h/DPI and LPS was reversed. The fluorescence intensity of 2’, 7’-dichlorofluorescein was detected at an excitation wavelength of 485 nm and an emission wavelength of 530 nm on a microplate absorbance reader (Bio-Rad Laboratories, Inc).
# In (A), J774A.1 macrophages (1 × 10^6/ml; 1 ml) were incubated with LPS (1 µg/ml) for 6 h, then with compound 1h (20 µM), the NADPH oxidase inhibitor DPI (25 µM), or DMSO (vehicle) for 30 min in the continued presence of LPS, then 2’,7’-dichlorofluorescein diacetate (2 µM) was added for 30 min, followed by ATP (5 mM) for the indicated time, then ROS levels were determined by measuring the mean fluorescence intensity (MFI) of the fluorophore carboxyl-DCF and expressing this value relative to that at time zero. In (B), J774A.1 macrophages (1 × 10^6/ml; 1 ml) were incubated with compound 1h (20 µM), DPI (25 µM), or DMSO (vehicle) for 30 min, then LPS (1 µg/ml) was added for 6 h; the cells were then incubated with 2’,7’-dichlorofluorescein diacetate (2 µM) for 30 min, then with ATP (5 mM) for the indicated time and ROS levels were measured by detection of the fluorescence intensity of the fluorophore carboxyl-DCF and expressed relative to that at time zero.
# [6] = test system: LPS-activated RAW 264.7 macrophages; assay: Intracellular ROS production (DCF fluorescence), LPS-induced; format: cell-based, murine; settings: RAW 264.7, 30 min pretreatment; compound 1h 20 µM, NAC 10 mM
# Protocol: Intracellular ROS production was measured by detecting the fluorescence intensity of the 2’, 7’-dichlorofluorescein, the oxidation product of 2’, 7’-dichlorofluorescein diacetate (Molecular Probes, Eugene, OR). In one study, RAW 264.7 macrophages (5 × 10^5/ml; 0.1 ml) were incubated with vehicle, compound 1h (20 µM), or NAC (10 mM) for 30 min, then 2’, 7’-dichlorofluorescein diacetate (2 µM) was added for 30 min, then LPS was added for the indicated time. In another, J774A.1 macrophages (5 × 10^5/ml; 0.1 ml) were incubated with LPS (1 µg/ml) for 6 h, then vehicle, compound 1h (20 µM), or DPI (25 µM) was added for 30 min. 2’, 7’-dichlorofluorescein diacetate (2 µM) was then added for 30 min before incubation with ATP (5 mM) for the indicated time; while, in another, the order of addition of compound1h/DPI and LPS was reversed. The fluorescence intensity of 2’, 7’-dichlorofluorescein was detected at an excitation wavelength of 485 nm and an emission wavelength of 530 nm on a microplate absorbance reader (Bio-Rad Laboratories, Inc).
# To test whether compound 1h exerted its anti-inflammatory effect on LPS-activated cells by downregulation of ROS production, intracellular ROS production in LPS-activated RAW 264.7 macrophages was measured.
# Figure 5 Effect of compound 1h on ROS production and MAPK phosphorylation in LPS-activated macrophages. […]
# [7] = in vitro; settings: mouse
# [8] = test system: various cancer cells; parameters: method as in PMID 16468746; settings: cited from earlier work
smiles,measurement,setting,value
COc1cc(/C=C/C=C/C=C/C=C/c2[nH]ccc2Cl)oc(=O)c1 [1a],pIC50,[1],> 5.00
CCCCc1c(OC)cc(/C=C/C=C/C=C/C=C/c2[nH]ccc2Cl)oc1=O [1c],pIC50,[1],> 5.00
COc1cc(/C(C)=C/C=C/C=C/C=C/c2[nH]ccc2Cl)oc(=O)c1 [1d],pIC50,[1],> 5.00
CC\C(=C/C=C/C=C/C=C/c1[nH]ccc1Cl)c1cc(OC)c(C)c(=O)o1 [1f],pIC50,[1],> 5.00
CCCCc1c(OC)cc(/C(C)=C/C=C/C=C/C=C/c2[nH]ccc2Cl)oc1=O [1g],pIC50,[1],> 5.00
COc1cc(/C=C/C=C/C=C/C=C/c2sccc2Cl)oc(=O)c1 [1j],ED50 (inhibition of LPS-induced NO production),[2],29 ± 6 µM
same,pIC50,[1],< 4.00
COc1cc(/C=C/C=C/C=C/C=C/c2sccc2Cl)oc(=O)c1C [1k],ED50 (inhibition of LPS-induced NO production),[2],18 ± 2 µM
same,pIC50,[1],< 4.00
COc1cc(/C=C/C=C/C=C/C=C/c2ccccc2Cl)oc(=O)c1C [1l],ED50 (inhibition of LPS-induced NO production),[2],18 ± 3 µM
same,pIC50,[1],< 4.00
COc1cc(/C=C/C=C/C=C/C=C/c2cccc(Cl)c2)oc(=O)c1C [1m],ED50 (inhibition of LPS-induced NO production),[2],26 ± 3 µM
same,pIC50,[1],< 4.00
COc1cc(/C=C/C=C/C=C/C=C/c2c(Cl)ccn2S(C)(=O)=O)oc(=O)c1C [1n],IL-6 production by LPS-activated cells,[3],significantly decreased IL-6 production by LPS-activated cells in a dose-dependent manner
same,TNF-α secretion by LPS-activated cells,[3],only slightly and non-significantly reduced
same,Background levels of IL-6 and TNF-α in non-stimulated macrophages,[3],none of the three compounds altered background levels of IL-6 and TNF-α
same,COX-2 expression,[4],did not affect expression of COX-2
same,LPS-induced iNOS expression,[4],reduced LPS-induced iNOS expression
same,Concentration at which reduction of LPS-induced iNOS expression is significant,[4],40 µM
same,NO production by LPS-activated cells,[2],decreased NO production by LPS-activated cells in a dose-dependent manner
same,ED50 (inhibition of LPS-induced NO production),[2],17 ± 2 µM
same,NO levels produced by non-activated cells,[2],did not alter NO levels produced by non-activated cells
same,pIC50,[1],< 4.00
"c1ccc2c(c1)[I+]c1ccccc1-2 [DPI, diphenylene iodonium, reference compound]","ATP-induced ROS production, compound added after LPS priming","[5]; J774A.1, LPS 6 h, then compound 1h 20 µM or DPI 25 µM 30 min, ATP 5 mM 0-40 min",inhibited both processes
same,"ATP-induced ROS production, compound added 30 min before LPS priming","[5]; J774A.1, compound 1h 20 µM or DPI 25 µM 30 min, then LPS 6 h, then ATP 5 mM",inhibited both processes
"CC(=O)N[C@@H](CS)C(=O)O [NAC, N-acetyl cysteine, reference compound]",LPS-stimulated ROS production,[6],reduced ROS production
"COc1cc(/C=C/C=C/C=C/C=C/c2[nH]ccc2Cl)oc(=O)c1C [compound 1b, auxarconjugatin A]",pIC50,[7],> 5.00
"COc1cc(/C(C)=C/C=C/C=C/C=C/c2[nH]ccc2Cl)oc(=O)c1C [compound 1e, 12E-isorumbrin]",Cytotoxicity for various cancer cells,[8],shown to be cytotoxic for various cancer cells
same,pIC50,[7],> 5.00
Cc1c(O)cc(/C=C/C=C/C=C/C=C/c2[nH]ccc2Cl)oc1=O [compound 1i],IL-6 production by LPS-activated cells,[3],significantly decreased IL-6 production by LPS-activated cells in a dose-dependent manner
same,TNF-α secretion by LPS-activated cells,[3],only slightly and non-significantly reduced
same,Background levels of IL-6 and TNF-α in non-stimulated macrophages,[3],none of the three compounds altered background levels of IL-6 and TNF-α
same,COX-2 expression,[4],did not affect expression of COX-2
same,LPS-induced iNOS expression,[4],reduced LPS-induced iNOS expression
same,Concentration at which reduction of LPS-induced iNOS expression is significant,[4],40 µM
same,NO production by LPS-activated cells,[2],decreased NO production by LPS-activated cells in a dose-dependent manner
same,ED50 (inhibition of LPS-induced NO production),[2],16 ± 2 µM
same,NO levels produced by non-activated cells,[2],did not alter NO levels produced by non-activated cells
same,pIC50,[1],< 4.00
